Assay results reported in patent US6610324B2, “Flupirtine in the treatment of fibromyalgia and related conditions” (The McLean Hospital Corporation, priority 1999, dated 2003).

Assays:
[1] = system: patients with fibromyalgia; assay: Flupirtine treatment of patients with fibromyalgia; type: in vivo
Excerpt: Flupirtine is an analgesic that has been used in Europe to treat the pain associated with surgery, cancer, trauma, and liver disease. It acts via the central nervous system through non-opite pain pathways, possibly involving the thalamus or spinal pain pathways.

[2] = cited from earlier work
[3] = in some, but not all, studies; cited from earlier work

## CCOC(=O)Nc1ccc(NCc2ccc(F)cc2)nc1N [flupirtine, 2-amino-3-carbethoxyamino-6-(4-fluorobenzylamino)-pyridine]
[1]; patients with fibromyalgia and related conditions
  analgesic action compared with opiates: roughly comparable to the effect produced by opiates
[1]; some patients with fibromyalgia, also where high doses of opiates, NSAIDs and placquenil fail
  effect on chronic and severe body pain: completely eliminating the chronic and severe body pain
[2]; abrupt discontinuation of administration
  withdrawal symptoms: does not produce withdrawal symptoms
[2]; compared with opiate drugs
  sedation: less sedating than opiate drugs
[2]; compared with opiates, no reports of abuse
  addiction and abuse: not addictive
[2]; human, in vivo
  tolerance to analgesic effects: do not acquire a tolerance
[2]; relatively safe at dosages lower than 600 mg per day
  reported side effects: dizziness, drowsiness, pruritus, dry mouth, and, less frequently, nausea, depression, sleep disturbance, and headache
[2]; unlike opiates
  cardiovascular side effects: not associated with cardiovascular side effects
  muscle relaxant properties: exhibits muscle relaxant properties
[3]
  effectiveness in relieving pain compared with opiates: as effective as opiates
